Laboratory results from ChEMBL document CHEMBL5291721, “A preclinical secondary pharmacology resource illuminates target-adverse drug reaction associations of marketed drugs” (Nat Commun, 2023).

How the values were obtained:
[1] = molecular target: Melanocortin receptor 3 (Homo sapiens, UniProt P41968)
[2] = molecular target: Voltage-dependent L-type calcium channel subunit alpha-1C (Rattus norvegicus, UniProt P22002); type: functional
[3] = molecular target: T1, Muscarinic acetylcholine receptor M1 (Homo sapiens, UniProt P11229); type: functional
T1 sequence (P11229 whole entry): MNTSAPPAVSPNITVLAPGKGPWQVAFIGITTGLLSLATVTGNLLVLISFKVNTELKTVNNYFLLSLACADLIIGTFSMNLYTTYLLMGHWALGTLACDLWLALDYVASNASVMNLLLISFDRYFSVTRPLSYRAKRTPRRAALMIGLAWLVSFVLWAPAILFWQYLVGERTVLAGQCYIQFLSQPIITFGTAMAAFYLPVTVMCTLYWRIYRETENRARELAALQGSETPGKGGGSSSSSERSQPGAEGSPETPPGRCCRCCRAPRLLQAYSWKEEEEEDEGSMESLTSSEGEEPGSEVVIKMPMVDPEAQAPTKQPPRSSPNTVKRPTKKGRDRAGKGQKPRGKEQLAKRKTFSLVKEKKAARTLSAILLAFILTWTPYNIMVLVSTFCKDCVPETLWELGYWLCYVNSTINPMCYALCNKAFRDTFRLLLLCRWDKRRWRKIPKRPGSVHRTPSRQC

[4] = molecular target: Voltage-gated inwardly rectifying potassium channel KCNH2 (Homo sapiens, UniProt Q12809); type: functional; conditions: read-out: AC50
[5] = molecular target: Gamma-aminobutyric acid receptor subunit alpha-1 (Rattus norvegicus, UniProt P62813)
[6] = molecular target: Histamine H1 receptor (Homo sapiens, UniProt P35367)
[7] = molecular target: Sodium-dependent dopamine transporter (Homo sapiens, UniProt Q01959)
[8] = molecular target: T2, Endothelin-1 receptor (Homo sapiens, UniProt P25101)
T2 sequence (P25101 whole entry): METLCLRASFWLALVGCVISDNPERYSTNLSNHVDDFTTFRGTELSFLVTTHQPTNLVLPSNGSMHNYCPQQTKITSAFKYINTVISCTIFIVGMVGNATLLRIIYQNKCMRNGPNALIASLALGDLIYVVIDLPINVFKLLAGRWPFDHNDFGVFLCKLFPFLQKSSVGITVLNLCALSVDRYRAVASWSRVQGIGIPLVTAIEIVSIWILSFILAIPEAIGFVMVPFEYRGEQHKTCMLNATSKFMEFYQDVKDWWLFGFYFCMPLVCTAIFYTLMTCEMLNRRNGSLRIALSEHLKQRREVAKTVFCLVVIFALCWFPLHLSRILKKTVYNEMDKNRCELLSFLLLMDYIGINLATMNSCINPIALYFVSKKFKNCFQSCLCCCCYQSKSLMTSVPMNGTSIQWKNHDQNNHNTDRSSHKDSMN

[9] = molecular target: Neuronal acetylcholine receptor subunit alpha-4 (Homo sapiens, UniProt P43681)
[10] = molecular target: T3, B2 bradykinin receptor (Homo sapiens, UniProt P30411)
T3 sequence (P30411 whole entry): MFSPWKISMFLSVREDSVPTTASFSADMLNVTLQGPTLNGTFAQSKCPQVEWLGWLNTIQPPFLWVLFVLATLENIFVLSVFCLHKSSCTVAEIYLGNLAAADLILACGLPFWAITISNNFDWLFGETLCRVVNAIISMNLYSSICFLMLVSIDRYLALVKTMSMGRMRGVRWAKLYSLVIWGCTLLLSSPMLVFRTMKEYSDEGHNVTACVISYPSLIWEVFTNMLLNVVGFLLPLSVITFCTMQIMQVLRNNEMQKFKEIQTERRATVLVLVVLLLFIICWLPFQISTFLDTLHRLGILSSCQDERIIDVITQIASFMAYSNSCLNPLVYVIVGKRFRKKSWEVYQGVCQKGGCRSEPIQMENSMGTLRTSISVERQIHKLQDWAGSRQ

[11] = molecular target: 5-hydroxytryptamine receptor 2B (Homo sapiens, UniProt P41595); type: functional, cell-based
[12] = molecular target: T4, 5-hydroxytryptamine receptor 1A (Homo sapiens, UniProt P08908); type: functional, cell-based
T4 sequence (P08908 whole entry): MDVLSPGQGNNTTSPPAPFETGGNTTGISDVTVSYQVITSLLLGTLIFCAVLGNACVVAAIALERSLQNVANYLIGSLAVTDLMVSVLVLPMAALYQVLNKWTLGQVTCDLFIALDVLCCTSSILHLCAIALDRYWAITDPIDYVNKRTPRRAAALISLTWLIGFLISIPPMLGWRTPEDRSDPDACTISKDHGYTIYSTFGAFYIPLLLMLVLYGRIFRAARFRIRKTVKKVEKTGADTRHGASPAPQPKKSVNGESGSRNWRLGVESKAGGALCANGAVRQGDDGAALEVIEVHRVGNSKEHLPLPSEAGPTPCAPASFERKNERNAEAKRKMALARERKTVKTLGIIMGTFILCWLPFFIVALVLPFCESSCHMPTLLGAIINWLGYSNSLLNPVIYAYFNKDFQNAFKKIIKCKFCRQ

[13] = molecular target: T5, Prostaglandin G/H synthase 1 (Rattus norvegicus, UniProt Q63921); type: functional
T5 sequence (Q63921 whole entry): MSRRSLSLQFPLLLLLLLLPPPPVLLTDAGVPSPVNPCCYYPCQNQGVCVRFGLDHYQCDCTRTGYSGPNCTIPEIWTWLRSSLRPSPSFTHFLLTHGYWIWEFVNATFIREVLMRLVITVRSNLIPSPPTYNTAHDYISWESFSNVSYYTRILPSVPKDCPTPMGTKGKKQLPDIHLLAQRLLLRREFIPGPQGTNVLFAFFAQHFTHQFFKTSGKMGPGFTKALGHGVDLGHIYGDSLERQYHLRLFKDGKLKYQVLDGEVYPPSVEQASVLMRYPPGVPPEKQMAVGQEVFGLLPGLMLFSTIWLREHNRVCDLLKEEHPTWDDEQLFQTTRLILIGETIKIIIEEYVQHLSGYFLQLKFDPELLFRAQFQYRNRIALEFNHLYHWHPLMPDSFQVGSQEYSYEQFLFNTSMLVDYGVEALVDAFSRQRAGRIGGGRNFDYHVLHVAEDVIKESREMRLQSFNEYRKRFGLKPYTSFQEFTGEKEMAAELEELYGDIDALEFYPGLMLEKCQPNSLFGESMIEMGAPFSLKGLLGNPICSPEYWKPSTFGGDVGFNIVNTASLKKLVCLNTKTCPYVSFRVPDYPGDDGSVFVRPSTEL
Further: assay procedure not described here.

Chain of 5-hydroxytryptamine receptor 2B (P41595 whole entry): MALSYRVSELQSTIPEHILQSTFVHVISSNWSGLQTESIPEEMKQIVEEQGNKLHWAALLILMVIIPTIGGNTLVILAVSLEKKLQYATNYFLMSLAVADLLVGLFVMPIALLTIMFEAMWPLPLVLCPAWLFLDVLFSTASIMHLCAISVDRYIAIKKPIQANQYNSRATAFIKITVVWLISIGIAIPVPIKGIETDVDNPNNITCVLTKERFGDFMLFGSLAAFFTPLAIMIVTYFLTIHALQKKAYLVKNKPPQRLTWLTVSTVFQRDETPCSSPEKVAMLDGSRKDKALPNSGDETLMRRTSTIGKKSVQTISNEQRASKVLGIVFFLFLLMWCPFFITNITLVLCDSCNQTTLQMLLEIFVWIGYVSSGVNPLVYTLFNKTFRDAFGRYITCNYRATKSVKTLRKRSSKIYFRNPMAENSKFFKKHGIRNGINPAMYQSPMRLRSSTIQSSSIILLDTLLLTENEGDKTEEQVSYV
Chain of Melanocortin receptor 3 (P41968 whole entry): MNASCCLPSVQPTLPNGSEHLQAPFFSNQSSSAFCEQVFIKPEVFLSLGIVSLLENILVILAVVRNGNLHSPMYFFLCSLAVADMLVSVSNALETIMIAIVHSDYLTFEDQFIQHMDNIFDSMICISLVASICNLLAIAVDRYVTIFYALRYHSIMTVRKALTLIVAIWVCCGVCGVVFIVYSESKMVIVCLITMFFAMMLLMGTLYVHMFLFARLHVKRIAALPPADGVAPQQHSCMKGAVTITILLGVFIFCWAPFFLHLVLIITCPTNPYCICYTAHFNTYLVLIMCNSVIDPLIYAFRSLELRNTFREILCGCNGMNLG
Chain of Sodium-dependent dopamine transporter (Q01959 whole entry): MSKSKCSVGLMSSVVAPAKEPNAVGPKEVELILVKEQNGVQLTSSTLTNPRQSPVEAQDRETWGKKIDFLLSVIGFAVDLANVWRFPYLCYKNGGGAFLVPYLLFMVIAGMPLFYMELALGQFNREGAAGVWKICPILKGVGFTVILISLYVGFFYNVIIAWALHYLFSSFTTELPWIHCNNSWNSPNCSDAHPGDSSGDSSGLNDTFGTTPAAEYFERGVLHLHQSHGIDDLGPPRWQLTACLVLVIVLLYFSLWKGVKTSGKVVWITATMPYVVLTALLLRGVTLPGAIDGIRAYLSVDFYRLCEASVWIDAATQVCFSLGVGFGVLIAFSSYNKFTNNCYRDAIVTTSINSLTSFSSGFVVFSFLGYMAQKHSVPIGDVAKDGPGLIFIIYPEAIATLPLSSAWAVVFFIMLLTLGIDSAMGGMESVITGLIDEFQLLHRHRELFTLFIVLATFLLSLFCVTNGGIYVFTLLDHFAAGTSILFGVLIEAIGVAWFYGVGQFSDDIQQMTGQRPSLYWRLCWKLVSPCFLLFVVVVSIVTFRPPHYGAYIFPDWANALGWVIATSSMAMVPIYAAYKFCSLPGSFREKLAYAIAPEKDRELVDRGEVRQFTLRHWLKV
Chain of Gamma-aminobutyric acid receptor subunit alpha-1 (P62813 whole entry): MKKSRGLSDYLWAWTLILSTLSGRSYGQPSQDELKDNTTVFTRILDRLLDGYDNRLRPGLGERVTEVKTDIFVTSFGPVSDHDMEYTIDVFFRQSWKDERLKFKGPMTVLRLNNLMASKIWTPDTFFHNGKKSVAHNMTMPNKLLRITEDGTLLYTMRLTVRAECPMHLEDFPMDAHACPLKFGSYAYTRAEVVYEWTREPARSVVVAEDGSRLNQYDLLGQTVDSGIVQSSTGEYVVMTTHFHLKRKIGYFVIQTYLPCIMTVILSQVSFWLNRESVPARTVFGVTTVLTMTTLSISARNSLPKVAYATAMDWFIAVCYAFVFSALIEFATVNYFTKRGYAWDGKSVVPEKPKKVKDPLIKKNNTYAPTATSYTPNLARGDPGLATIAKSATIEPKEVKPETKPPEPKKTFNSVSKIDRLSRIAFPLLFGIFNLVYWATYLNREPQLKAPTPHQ
Chain of Voltage-gated inwardly rectifying potassium channel KCNH2 (Q12809 whole entry): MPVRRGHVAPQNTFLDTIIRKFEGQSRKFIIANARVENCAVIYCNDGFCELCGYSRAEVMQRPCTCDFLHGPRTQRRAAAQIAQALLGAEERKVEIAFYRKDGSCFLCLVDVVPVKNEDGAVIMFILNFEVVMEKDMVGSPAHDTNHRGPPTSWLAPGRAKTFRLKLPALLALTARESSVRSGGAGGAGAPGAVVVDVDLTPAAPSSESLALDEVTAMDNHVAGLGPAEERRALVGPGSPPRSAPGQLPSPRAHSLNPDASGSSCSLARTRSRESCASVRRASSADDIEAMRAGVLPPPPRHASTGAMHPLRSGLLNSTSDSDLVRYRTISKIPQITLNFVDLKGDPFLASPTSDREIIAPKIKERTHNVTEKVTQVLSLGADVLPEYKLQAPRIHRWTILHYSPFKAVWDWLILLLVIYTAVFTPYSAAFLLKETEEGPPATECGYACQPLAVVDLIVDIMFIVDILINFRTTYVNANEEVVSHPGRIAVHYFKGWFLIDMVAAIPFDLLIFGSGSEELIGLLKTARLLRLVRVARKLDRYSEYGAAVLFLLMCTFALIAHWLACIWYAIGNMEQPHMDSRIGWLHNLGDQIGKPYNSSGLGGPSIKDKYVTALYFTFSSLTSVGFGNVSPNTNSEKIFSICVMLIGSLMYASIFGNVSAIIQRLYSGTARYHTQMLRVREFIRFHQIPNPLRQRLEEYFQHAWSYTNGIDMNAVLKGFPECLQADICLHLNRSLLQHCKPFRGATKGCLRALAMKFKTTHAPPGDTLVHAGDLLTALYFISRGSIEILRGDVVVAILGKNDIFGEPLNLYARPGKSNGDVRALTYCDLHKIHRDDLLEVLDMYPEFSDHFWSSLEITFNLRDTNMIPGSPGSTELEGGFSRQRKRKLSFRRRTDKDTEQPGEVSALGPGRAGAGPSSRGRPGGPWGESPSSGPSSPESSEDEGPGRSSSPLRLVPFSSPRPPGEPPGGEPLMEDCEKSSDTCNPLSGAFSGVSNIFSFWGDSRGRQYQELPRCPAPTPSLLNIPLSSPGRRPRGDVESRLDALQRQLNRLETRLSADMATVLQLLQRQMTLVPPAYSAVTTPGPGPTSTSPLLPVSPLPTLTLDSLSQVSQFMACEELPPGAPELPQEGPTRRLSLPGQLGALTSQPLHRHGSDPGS
Chain of Neuronal acetylcholine receptor subunit alpha-4 (P43681 whole entry): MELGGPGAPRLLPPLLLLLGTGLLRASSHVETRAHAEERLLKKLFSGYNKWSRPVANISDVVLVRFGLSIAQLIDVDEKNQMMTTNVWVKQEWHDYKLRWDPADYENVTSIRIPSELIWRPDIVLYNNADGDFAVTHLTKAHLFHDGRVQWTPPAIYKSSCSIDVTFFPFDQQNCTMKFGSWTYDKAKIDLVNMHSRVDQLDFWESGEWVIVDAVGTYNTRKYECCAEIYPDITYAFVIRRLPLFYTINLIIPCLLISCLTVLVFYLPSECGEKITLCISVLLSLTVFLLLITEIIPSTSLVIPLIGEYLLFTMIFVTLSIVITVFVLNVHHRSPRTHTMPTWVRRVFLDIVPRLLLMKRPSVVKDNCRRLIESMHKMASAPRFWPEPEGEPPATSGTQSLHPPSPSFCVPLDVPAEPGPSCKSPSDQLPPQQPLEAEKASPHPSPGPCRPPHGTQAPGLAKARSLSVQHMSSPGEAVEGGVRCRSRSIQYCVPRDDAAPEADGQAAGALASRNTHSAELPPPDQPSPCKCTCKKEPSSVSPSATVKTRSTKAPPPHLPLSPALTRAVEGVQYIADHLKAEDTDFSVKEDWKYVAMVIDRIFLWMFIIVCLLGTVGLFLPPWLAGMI
Chain of Histamine H1 receptor (P35367 whole entry): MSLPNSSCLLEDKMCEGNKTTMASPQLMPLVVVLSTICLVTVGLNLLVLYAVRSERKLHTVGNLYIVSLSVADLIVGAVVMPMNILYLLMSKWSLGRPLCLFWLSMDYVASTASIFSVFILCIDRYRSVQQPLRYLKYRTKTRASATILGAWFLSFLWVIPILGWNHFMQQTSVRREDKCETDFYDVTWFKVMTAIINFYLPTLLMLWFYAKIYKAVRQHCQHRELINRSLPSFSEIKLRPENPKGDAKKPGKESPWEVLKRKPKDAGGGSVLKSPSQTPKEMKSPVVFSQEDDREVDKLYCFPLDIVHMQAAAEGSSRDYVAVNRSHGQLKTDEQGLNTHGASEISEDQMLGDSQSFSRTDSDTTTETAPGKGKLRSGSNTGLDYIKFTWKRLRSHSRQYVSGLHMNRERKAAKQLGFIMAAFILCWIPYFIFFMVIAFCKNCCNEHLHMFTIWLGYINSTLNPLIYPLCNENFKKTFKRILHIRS

| SMILES | AC50 [1] [µM] | AC50 [2] [µM] | AC50 [3] [µM] | AC50 [4] [µM] | AC50 [5] [µM] | AC50 [6] [µM] | AC50 [7] [µM] | AC50 [8] [µM] | AC50 [9] [µM] | AC50 [10] [µM] | AC50 [11] [µM] | AC50 [12] [µM] | AC50 [13] [µM] |
| --- | --- | --- | --- | --- | --- | --- | --- | --- | --- | --- | --- | --- | --- |
| N#Cc1ccc([C@H]2CCc3cncn32)c(F)c1 [OSILODROSTAT] | > 10 | > 10 | > 10 | 19.7 | > 10 | 10 | > 10 | > 10 | > 10 |  |  |  |  |
| C=CCN1CCCC1CNC(=O)c1cc(S(N)(=O)=O)cc(OC)c1OC (stereo not given) [VERALIPRIDE] | > 30 | > 30 | > 30 | 7.6 | > 30 | > 30 | > 30 | > 30 | > 30 | > 30 | > 30 | > 30 | > 30 |
| CCOC(=O)[N-]c1cn(N2CCOCC2)n[o+]1 [MOLSIDOMINE] | > 30 | > 30 | > 30 | > 30 | > 30 | > 30 | > 30 | > 30 | > 30 | > 30 | > 30 | > 30 | 24 |
| CCC(C(=O)O)c1ccc(N2Cc3ccccc3C2=O)cc1 (stereo not given) [INDOBUFEN] | > 30 | > 30 | > 30 | > 30 | > 30 | > 30 | > 30 | > 30 | > 30 | > 30 | > 30 | > 30 | 0.8 |
| OC(CNCC(O)C1CCc2cc(F)ccc2O1)C1CCc2cc(F)ccc2O1 (stereo not given) [NEBIVOLOL] | 8.7 | 24 | 19 | 0.83 | > 30 | > 30 | 3.2 | > 30 | > 30 | > 30 | > 30 | 1.6 | > 30 |
| COc1ccccc1N1CCN(CCCNc2cc(=O)n(C)c(=O)n2C)CC1 | > 30 | > 30 | > 30 | > 30 | > 30 | 4.3 | > 30 | > 30 | > 30 | > 30 | > 30 |  | > 30 |
| CCOC(=O)[C@H](CCc1ccccc1)N[C@@H](C)C(=O)N1C(=O)N(C)C[C@H]1C(=O)O | > 30 | > 30 | > 30 | > 30 | > 30 | > 30 | > 30 | > 30 | > 30 | > 30 | > 30 | > 30 | 12 |
| CC(CC(c1ccccc1)c1ccccc1)NC(C)(C)C (stereo not given) [TERODILINE] | > 30 | > 30 | 1.4 |  | > 30 | 0.76 | 20 | > 30 | > 30 | > 30 | > 30 | > 30 | > 30 |
| CN1C(=O)C(O)N=C(c2ccccc2)c2cc(Cl)ccc21 (stereo not given) [TEMAZEPAM] | > 30 | > 10 | > 10 |  | > 10 | > 10 | > 10 | > 30 | > 10 | > 30 | > 10 | > 10 | > 30 |
| CCc1c(Cl)c(O)c(Cl)c(O)c1C(=O)O[C@H]1[C@H](O)[C@H](OC)[C@H](OC/C2=C\C=C\C[C@H](O)/C(C)=C/[C@H](CC)[C@@H](O[C@@H]3OC(C)(C)[C@@H](OC(=O)C(C)C)[C@H](O)[C@@H]3O)/C(C)=C/C(C)=C/C[C@@H]([C@@H](C)O)OC2=O)O[C@@H]1C [FIDAXOMICIN] | > 30 | > 10 | > 30 | > 30 | > 10 | > 30 | > 30 | > 30 | > 10 | > 30 | > 30 |  | > 30 |
| NCC(=O)CCC(=O)O [AMINOLEVULINIC ACID] | > 30 |  | > 30 | > 30 | > 30 | > 30 | > 30 | > 30 | > 30 | > 30 | > 30 | > 30 | > 30 |
| CC(C)OC(=O)CCC/C=C\C[C@@H]1[C@@H](CC[C@@H](O)CCc2ccccc2)[C@H](O)C[C@@H]1O [LATANOPROST] | > 30 |  | > 30 | > 30 | > 30 | > 30 | > 30 | > 30 | > 30 | > 30 | > 30 | > 30 | > 30 |
| O=C(NCCNCC(O)COc1ccc(O)cc1)N1CCOCC1 (stereo not given) [XAMOTEROL] | > 30 |  | > 30 | > 30 | > 30 | > 30 | > 30 | > 30 | > 30 | > 30 | > 30 | > 30 | > 30 |
| COc1ccc(CCN(C)CCCC(C#N)(c2cc(OC)c(OC)c(OC)c2)C(C)C)cc1OC (stereo not given) [GALLOPAMIL] | > 30 |  | > 30 | 1.9 | > 30 | > 30 | > 30 | > 30 | > 30 | > 30 | > 30 | > 30 | > 30 |
